Source: US6689767B2, “Triterpenes having antibacterial activity” (Regents of the University of Minnesota, priority 2000, dated 2004)

Tests used:
Assay type in all cases: cell-based
Escherichia coli = test: Kirby-Bauer disk diffusion growth inhibition, Escherichia coli; conditions: for Zone of inhibition Escherichia coli / zone of inhibition at 0.125 µg/mL: 100 μl on 10 mm disk, 18 hours 37° C.; for sensitivity of E. coli: Example 34, 10 mg/ml in DMSO; for Active against: Table 1 summary, E. coli; for zone of inhibition at 0.125 µg/mL: Escherichia coli, read-out: Zone of inhibition Escherichia coli
Method: (§1) The compounds disclosed herein were tested for growth inhibition against four strains of bacteria: Escherichia coli, Staphylococcus aureus, methicillin-resistant Staphylococcus aureus, and Bacillus subtilis. […] They represent […]. E. coli is a gram-negative, non-spore forming, rod-shaped, opportunistic pathogen that resides in the human digestive tract. S. aureus is a gram positive coccus, is usually found morphologically as a […], and is an opportunistic human pathogen, often residing on or in the skin. B. subtilis is a gram positive spore-forming rod. Its native environment is the soil. The chemicals were tested for growth-inhibition of the bacteria by the Kirby-Bauer method. See, e.g., Microbiology, third edition; Lansing M. Prescott, John P. Harley, and Donald A. Klein; Wm. C. Brown Publishers.
(§2) Mueller-Hinton agar (Difco Lab, Michigan) was prepared according to the manufacturer's directions, and 20 ml was dispensed in each sterile petri dish. Sterile nutrient broth (Difco Lab, Michigan) was also prepared according to the manufacturer's directions.
(§3) Bacteria were grown in liquid nutrient broth for 18 hours at 37° C. until they were turbid.
(§4) An aliquot of 0.5 ml of cultured bacteria was aseptically transferred to the surface of a Mueller-Hinton agar plat, and spread using a cotton-tipped swab. Plates were then allowed to dry for 5 minutes. Then a 10 mm diameter filter paper disk impregnated with the test chemical was placed with sterile forceps on the plate. The disks were impregnated with 100 μl of a solution of the test compound in DMSO or in water, at the indicated concentrations in Table 1.
(§5) The zones of inhibition were measured after 18 hours growth at 37° C. Tests were done in triplicate.
(§6) Additional compounds were tested for activity against E. coli, laboratory strain S. aureus (not methicillin resistant), and B. subtilis. The compounds were tested by the disk diffusion method, as in Example 1, with application of a 10 mg/mil solution of the test compound in DMSO.

Bacillus subtilis = test: Kirby-Bauer disk diffusion growth inhibition, Bacillus subtilis; conditions: 100 μl on 10 mm disk, 18 hours 37° C.; for zone of inhibition at 0.125 µg/mL: Bacillus subtilis, read-out: Zone of inhibition Bacillus subtilis
Method: as §1, §2, §3, §4, §5, §6

Staphylococcus aureus = test: Kirby-Bauer disk diffusion growth inhibition, Staphylococcus aureus; conditions: for Zone of inhibition Staphylococcus aureus / zone of inhibition at 0.125 µg/mL: 100 μl on 10 mm disk, 18 hours 37° C.; for Zone of inhibition (mm) against S. aureus: Example 35, reference antibiotic, amount on disk not stated; for zone of inhibition at 0.125 µg/mL: Staphylococcus aureus, read-out: Zone of inhibition Staphylococcus aureus
Method: as §1, §2, §3, §4, §5, §6
(§7) Derivatives of lupeol were tested for inhibition of bacterial growth using the Kirby-Bauer disk diffusion method and by growth in liquid culture. For the disk diffusion method, compounds were dissolved in DMSO and 100 μl was added to the 10 mm filter paper disk. The amount of compound applied to the disk varied. The amount applied for each compound was as follows: lupeol (50 μg), lupeol-3-maleate (15 μg), lupeol-3-thiodiglycolate (15 μg), lupeol-3-dimethyl succinate (60 μg), lupeol-3-phosphate (30 μg), lupenone (50 μg), lupenon-3-oxime (50 μg), lupeol-3-amine (50 μg), lupenon-1,2-ene-2-ol (50 μg). In liquid culture, the compounds were dissolved in DMSO at 1 mg/ml and then 100 μl was added to 7 ml of sterile broth, along with a 1/200 dilution of freshly grown bacterial liquid culture.

bacteria = test: Summary statements over the antibacterial assays above; conditions: summary list
[1] = test system: Staphylococcus epidemidis; test: Kirby-Bauer disk diffusion of lupeol derivatives, Staphylococcus epidermidis; conditions: reference antibiotic, amount on disk not stated
Method: as §7

Enterococcus faecalis = test: Kirby-Bauer disk diffusion of lupeol derivatives, Enterococcus faecalis; conditions: reference antibiotic, amount on disk not stated
Method: as §7

For `C=C(C)C1CCC2(COC(=O)CCC(=O)O)CC[C@@]3(C)C(CCC4[C@@]5(C)CCC(OC(=O)CCC(=O)O)C(C)(C)C5CC[C@]43C)C12` (stereo partly shown) [Betulin 3,28-disuccinate, Betulin-3,28-disuccinate], the “Zone of inhibition Escherichia coli” value (Escherichia coli; 1 mg/ml in DMSO) was 0 mm, the “Zone of inhibition Bacillus subtilis” value (Bacillus subtilis; 1 mg/ml in DMSO) was 0 mm and the “Zone of inhibition Staphylococcus aureus” value (Staphylococcus aureus; 1 mg/ml in DMSO) was 0 mm. The “active against at least one strain of bacteria in the assays above” value (shortened to “active against at least one strain”) (bacteria) was “active against at least one strain of bacteria”.
For `C=C(C)[C@@H]1CC[C@]2(CO)CC[C@]3(C)[C@H](CC[C@@H]4[C@@]5(C)CC[C@H](OC(=O)/C=C/c6ccc(O)c(O)c6)C(C)(C)[C@@H]5CC[C@]43C)[C@@H]12` [Betulin-3-caffeate], the “sensitivity of E. coli” value (Escherichia coli) was “sensitive”, the Active against (Escherichia coli) was “E. coli” and the “active against at least one strain” value (bacteria) was “active against at least one strain of bacteria”.
With `C=C(C)C1CCC2(COC(=O)COCC(=O)O)CCC3(C)C(CCC4C5(C)CCC(O)C(C)(C)C5CCC43C)C12` (stereo not shown) [Betulin-28-diglycolate] the “sensitivity of E. coli” value (Escherichia coli) was “sensitive”, the Active against (Escherichia coli) was “E. coli” and the “active against at least one strain” value (bacteria) was “active against at least one strain of bacteria”.
With `C=C(C)[C@@H]1CC[C@]2(COC(=O)CN)CC[C@]3(C)[C@H](CC[C@@H]4[C@@]5(C)CC[C@H](OC(=O)CN)C(C)(C)[C@@H]5CC[C@]43C)[C@@H]12` [Betulin 3,28-diglycine, Betulin-3,28-diglycine] the “Zone of inhibition Escherichia coli” value (Escherichia coli; 125 ng/ml in water) was 0 mm, the “sensitivity of E. coli” value (Escherichia coli) was “sensitive” and the Active against (Escherichia coli) was “E. coli”. For the same compound, the “Zone of inhibition Bacillus subtilis” value (Bacillus subtilis; 125 ng/ml in water) was 0 mm, the “Zone of inhibition Staphylococcus aureus” value (Staphylococcus aureus; 125 ng/ml in water) was 0 mm and the “active against at least one strain” value (bacteria) was “active against at least one strain of bacteria”.
In the case of `CC1(C)S[C@@H]2[C@H](NC(=O)[C@H](N)c3ccccc3)C(=O)N2[C@H]1C(=O)O` [Ampicillin, reference compound], the “Zone of inhibition (mm) against S. epiderm.” value [1] is reported as 2 mm, the “Zone of inhibition (mm) against E. faecalis” value (Enterococcus faecalis) is reported as 5.75 mm and the “Zone of inhibition (mm) against S. aureus” value (Staphylococcus aureus) is reported as 6.1 mm.
In the case of `C=C(C)[C@@H]1CC[C@]2(COC(=O)[C@@H](N)C(C)C)CC[C@]3(C)[C@H](CC[C@@H]4[C@@]5(C)CC[C@H](OC(=O)[C@@H](N)C(C)C)C(C)(C)[C@@H]5CC[C@]43C)[C@@H]12` [Betulin-3,28-Di-L-valine ester, Betulin-3,28-di-L-valine], the “sensitivity of S. aureus” value (Staphylococcus aureus; Example 34, 10 mg/ml in DMSO) is reported as “sensitive”, the Active against (Staphylococcus aureus; Table 1 summary, S. aureus) is reported as “S. aureus” and the “active against at least one strain” value (bacteria) is reported as “active against at least one strain of bacteria”.
In the case of `O=C(N[C@H](CO)[C@H](O)c1ccc([N+](=O)[O-])cc1)C(Cl)Cl` [Chloramphenicol, reference compound], the “Zone of inhibition (mm) against S. epiderm.” value [1] is reported as 0.5 mm, the “Zone of inhibition (mm) against E. faecalis” value (Enterococcus faecalis) is reported as 1.25 mm and the “Zone of inhibition (mm) against S. aureus” value (Staphylococcus aureus) is reported as 2.6 mm.
In the case of Gentamicin [reference compound], the “Zone of inhibition (mm) against S. epiderm.” value [1] is reported as 0 mm, the “Zone of inhibition (mm) against E. faecalis” value (Enterococcus faecalis) is reported as 0 mm and the “Zone of inhibition (mm) against S. aureus” value (Staphylococcus aureus) is reported as 0.1 mm.
`C=C(C)C1CCC2(C)CCC3(C)C(CCC4C5(C)CCC(OC(=O)c6ccccc6C(=O)O)C(C)(C)C5CCC43C)C12` (stereo not shown) [Lupeol-3-phthalate] was tested, and the zone of inhibition at 0.125 µg/mL (Escherichia coli; 125 ng/ml in water) was 0 mm, the zone of inhibition at 0.125 µg/mL (Bacillus subtilis; 125 ng/ml in water) was 0 mm and the zone of inhibition at 0.125 µg/mL (Staphylococcus aureus; 125 ng/ml in water) was 0 mm.
`C[C@H]1[C@H](C)CC[C@]2(C(=O)O)CC[C@]3(C)C(=CC[C@@H]4[C@@]5(C)CC[C@H](O)C(C)(C)[C@@H]5CC[C@]43C)[C@H]12` [Ursolic Acid] was tested, and the zone of inhibition at 0.125 µg/mL (Escherichia coli; 125 ng/ml in water) was 0 mm, the zone of inhibition at 0.125 µg/mL (Bacillus subtilis; 125 ng/ml in water) was 0 mm and the zone of inhibition at 0.125 µg/mL (Staphylococcus aureus; 125 ng/ml in water) was 0 mm.
Betulin 3,28-maleate was tested, and the “Zone of inhibition Escherichia coli” value (Escherichia coli; 20 mg/ml in DMSO) was 0 mm, the “Zone of inhibition Bacillus subtilis” value (Bacillus subtilis; 20 mg/ml in DMSO) was 0 mm and the “Zone of inhibition Staphylococcus aureus” value (Staphylococcus aureus; 20 mg/ml in DMSO) was 0 mm.
With `CC1(C)CCC23CC[C@@]4(C)C(CCC5[C@@]6(C)C=C(OC(=O)CCC(=O)O)C(=O)C(C)(C)C6CC[C@]54C)C2C1OC3` (stereo partly shown) [3-Allobetulon-1-ene-2-succinate, 3-Allobetulon-1-en-2succinate] the zone of inhibition at 0.125 µg/mL (Escherichia coli; 125 ng/ml in water) was 0 mm, the zone of inhibition at 0.125 µg/mL (Bacillus subtilis; 125 ng/ml in water) was 0 mm and the zone of inhibition at 0.125 µg/mL (Staphylococcus aureus; 125 ng/ml in water) was 0 mm.
